# Measured values as given in ChEMBL document CHEMBL1125860 (J Med Chem, 1991).
# Active and inactive are the calls of the source. The rule behind the calls is not given here.
# How the values were obtained:
# [1] = target: Aldo-keto reductase family 1 member B1 (Bos taurus) (UniProt P16116); experiment: In vitro % decrease of aldose reductase measured in isolated partially purified bovine lens preparations at 10e-7 M concentration
# [2] = test system: Rattus norvegicus; experiment: In vivo inhibition of galactitol accumulation in sciatic nerves of rat at 44 mg/kg/day; Not significant; assay type: functional, organism-based; conditions: Sciatic nerve
# [3] = species: Rattus norvegicus; experiment: (§1) In vitro inhibition of sorbitol accumulation was measured in rat sciatic nerves incubated in the presence of 50 mM glucose at 10e-5 M concentration; assay type: functional, Sciatic nerve
# [4] = test system: Rattus norvegicus; experiment: In vivo inhibition of galactitol accumulation in diaphragm of rat at 144 mg/kg; assay type: functional
# [5] = species: Rattus norvegicus; experiment: (§2) In vitro inhibition of sorbitol accumulation was measured in rat sciatic nerves incubated in the presence of 50 mM glucose at 10e-6 M concentration; assay type: functional, Sciatic nerve
# [6] = test system: Rattus norvegicus; experiment: In vivo inhibition of galactitol accumulation in sciatic nerves of rat at 94 mg/kg/day; Not significant; assay type: functional, organism-based; conditions: Sciatic nerve
# [7] = test system: Rattus norvegicus; experiment: In vivo inhibition of galactitol accumulation in diaphragm of rat at 94 mg/kg/day; assay type: functional
# [8] = test system: Rattus norvegicus; experiment: In vivo inhibition of galactitol accumulation in sciatic nerves of rat at 28 mg/kg/day; assay type: functional; conditions: Sciatic nerve
# [9] = test system: Rattus norvegicus; experiment: In vivo inhibition of galactitol accumulation in diaphragm of rat at 28 mg/kg/day; assay type: functional
# [10] = test system: Rattus norvegicus; experiment: In vivo inhibition of galactitol accumulation in sciatic nerves of rat at 144 mg/kg/day; assay type: functional; conditions: Sciatic nerve
# [11] = test system: Rattus norvegicus; experiment: In vivo inhibition of galactitol accumulation in diaphragm of rat at 144 mg/kg/day; assay type: functional
# [12] = test system: Rattus norvegicus; experiment: In vivo inhibition of galactitol accumulation in sciatic nerves of rat at 20 mg/kg/day; assay type: functional; conditions: Sciatic nerve
# [13] = test system: Rattus norvegicus; experiment: In vivo inhibition of galactitol accumulation in sciatic nerves of rat at 16 mg/kg/day; assay type: functional; conditions: Sciatic nerve
# [14] = test system: Rattus norvegicus; experiment: In vivo inhibition of galactitol accumulation in diaphragm of rat at 20 mg/kg/day; assay type: functional
# [15] = test system: Rattus norvegicus; experiment: In vivo inhibition of galactitol accumulation in sciatic nerves of rat at 51 mg/kg/day; assay type: functional; conditions: Sciatic nerve
# [16] = test system: Rattus norvegicus; experiment: In vivo inhibition of galactitol accumulation in diaphragm of rat at 51 mg/kg/day; assay type: functional
# [17] = species: Rattus norvegicus; experiment: Inhibition of galactitol accumulation in rat lens incubated in presence of 50 mM glucose; assay type: functional, organism-based; conditions: Lens of camera-type eye
# [18] = test system: Rattus norvegicus; experiment: In vivo inhibition of galactitol accumulation in diaphragm of rat at 5 mg/kg/day; assay type: functional
# [19] = test system: Rattus norvegicus; experiment: In vivo inhibition of galactitol accumulation in diaphragm of rat at 10 mg/kg/day; assay type: functional
# [20] = species: Rattus norvegicus; experiment: Inhibition of galactitol accumulation in rat RBC incubated in presence of 50 mM glucose; assay type: functional, organism-based
# [21] = species: Rattus norvegicus; experiment: Inhibition of aldose reductase activity was measured by measuring sorbitor accumulation in the sciatic nerves of STZ diabetic rat.; assay type: functional; conditions: Sciatic nerve
# [22] = species: Rattus norvegicus; experiment: Inhibition of galactitol accumulation in sciatic nerves of rat incubated in presence of 50 mM glucose.; assay type: functional, organism-based; conditions: Sciatic nerve
# [23] = test system: Rattus norvegicus; experiment: In vivo inhibition of galactitol accumulation in sciatic nerves of galactose fed rat.; assay type: functional; conditions: Sciatic nerve
# [24] = target: Aldo-keto reductase family 1 member B1 (Bos taurus) (UniProt P16116); experiment: Inhibition of aldose reductase activity was measured on partially purified bovine lens preparations incubated in presence of 50 mM glucose; Not active
# [25] = test system: Rattus norvegicus; experiment: In vivo inhibition of galactitol accumulation in sciatic nerves of rat at 5 mg/kg/day; assay type: functional; conditions: Sciatic nerve
# [26] = test system: Rattus norvegicus; experiment: In vivo inhibition of galactitol accumulation in sciatic nerves of rat at 10 mg/kg/day; assay type: functional; conditions: Sciatic nerve
# [27] = test system: Rattus norvegicus; experiment: In vivo inhibition of galactitol accumulation in the RBC of galactose fed rat.; assay type: functional
# [28] = test system: Rattus norvegicus; experiment: In vivo inhibition of galactitol accumulation in diaphragm of rat at 132 mg/kg/day; assay type: functional
# [29] = test system: Rattus norvegicus; experiment: In vivo inhibition of galactitol accumulation in sciatic nerves of rat at 132 mg/kg/day; assay type: functional; conditions: Sciatic nerve
# [30] = test system: Rattus norvegicus; experiment: In vivo inhibition of galactitol accumulation in sciatic nerves of rat at 97 mg/kg/day; assay type: functional; conditions: Sciatic nerve
# [31] = test system: Rattus norvegicus; experiment: In vivo inhibition of galactitol accumulation in diaphragm of rat at 97 mg/kg/day; assay type: functional
# [32] = species: Rattus norvegicus; experiment: as §1; assay type: functional; conditions: Sciatic nerve
# [33] = test system: Rattus norvegicus; experiment: In vivo inhibition of galactitol accumulation in sciatic nerves of rat at 4 mg/kg/day; assay type: functional; conditions: Sciatic nerve
# [34] = species: Rattus norvegicus; experiment: as §2; assay type: functional; conditions: Sciatic nerve
# [35] = test system: Rattus norvegicus; experiment: Effective dose of aldose reductase was evaluated by measuring galactitol accumulation in sciatic nerves of rat at 4 mg/kg/day; assay type: functional; conditions: Sciatic nerve
# [36] = test system: Rattus norvegicus; experiment: In vivo inhibition of galactitol accumulation in diaphragm of rat at 4 mg/kg/day; assay type: functional
# [37] = target: Aldo-keto reductase family 1 member B1 (Bos taurus) (UniProt P16116); experiment: In vitro % decrease of aldose reductase was measured in isolated partially purified bovine lens preparations at 10e-7 M concentration; Not active
# [38] = test system: Rattus norvegicus; experiment: In vivo inhibition of galactitol accumulation in sciatic nerves of rat at 22 mg/kg/day; assay type: functional; conditions: Sciatic nerve
# [39] = test system: Rattus norvegicus; experiment: In vivo inhibition of galactitol accumulation in sciatic nerves of rat at 27 mg/kg/day; assay type: functional; conditions: Sciatic nerve
# [40] = test system: Rattus norvegicus; experiment: In vivo inhibition of galactitol accumulation in sciatic nerves of rat at 11 mg/kg/day; assay type: functional; conditions: Sciatic nerve
# [41] = test system: Rattus norvegicus; experiment: In vivo inhibition of galactitol accumulation in diaphragm of rat at 11 mg/kg/day; assay type: functional
# [42] = test system: Rattus norvegicus; experiment: In vivo inhibition of galactitol accumulation in diaphragm of rat at 27 mg/kg/day; assay type: functional
# [43] = test system: Rattus norvegicus; experiment: In vivo inhibition of galactitol accumulation in diaphragm of rat at 22 mg/kg/day; assay type: functional
# [44] = test system: Rattus norvegicus; experiment: In vivo inhibition of galactitol accumulation in sciatic nerves of rat at 14 mg/kg/day; assay type: functional; conditions: Sciatic nerve
# [45] = test system: Rattus norvegicus; experiment: In vivo inhibition of galactitol accumulation in diaphragm of rat at 14 mg/kg/day; assay type: functional
structure (smiles),measurement,setting,value
COc1ccc2c(C(=O)N(C)CC(=O)O)cc(Cc3ccccc3)cc2c1Br,inhibition,[1],74%
same,inhibition,[2],inactive
same,Inhibition,[3],72%
same,inhibition in vivo at 144 mg/kg,[4],24%
same,Inhibition,[5],44%
CCCCc1ccc2c(C(F)(F)F)c(OC)ccc2c1C(=O)N(C)CC(=O)O,inhibition,[6],inactive
same,inhibition,[1],23%
same,inhibition in vivo at 94 mg/kg/day,[7],37%
CCOc1ccc2c(C(F)(F)F)c(OC)ccc2c1C(=S)N(C)CC(=O)O,inhibition,[1],87%
same,inhibition in vivo at 28 mg/kg/day,[8],46%
same,inhibition in vivo at 28 mg/kg/day,[9],85%
COc1ccc2c(C(=S)N(C)CC(=O)O)cc(Cc3ccccc3)cc2c1Br,inhibition,[1],84%
same,Inhibition,[3],78%
same,Inhibition,[5],48%
same,inhibition in vivo at 144 mg/kg/day,[10],46%
same,inhibition in vivo at 144 mg/kg/day,[11],84%
COc1ccc2c(C(=O)N(C)CC(=O)O)c(F)ccc2c1C(F)(F)F,inhibition in vivo at 20 mg/kg/day,[12],62%
same,inhibition,[1],80%
same,Inhibition,[3],66%
same,inhibition in vivo at 16 mg/kg/day,[13],45%
same,Inhibition,[5],41%
same,inhibition in vivo at 20 mg/kg/day,[14],72%
COC(=O)N(CC(=O)O)C(=O)c1c(Br)ccc2c(C(F)(F)F)c(OC)ccc12,inhibition,[1],77%
same,inhibition in vivo at 51 mg/kg/day,[15],69%
same,inhibition in vivo at 51 mg/kg/day,[16],62%
same,Inhibition,[3],68%
same,Inhibition,[5],29%
COc1ccc2c(C(=O)N(C)CC(N)=O)c(F)ccc2c1C(F)(F)F,IC50,[17],> 10 µM
same,inhibition in vivo at 5 mg/kg/day,[18],32%
same,inhibition in vivo at 10 mg/kg/day,[19],41%
same,IC50,[20],12 µM
same,ED50,[21],< 3 mg/kg
same,IC50,[22],3.1 µM
same,Inhibition,[3],80%
same,ED50,[23],5.5 mg/kg
same,inhibition,[24],inactive
same,inhibition in vivo at 5 mg/kg/day,[25],39%
same,Inhibition,[5],17%
same,inhibition in vivo at 10 mg/kg/day,[26],59%
same,ED50,[27],8.5 mg/kg
COc1ccc2c(C(=O)N(C)CC(=O)O)cc(-c3ccccc3)cc2c1Br,inhibition in vivo at 132 mg/kg/day,[28],33%
same,inhibition,[1],83%
same,Inhibition,[3],71%
same,Inhibition,[5],28%
same,inhibition in vivo at 132 mg/kg/day,[29],24%
COc1ccc2c(C(=O)N(C)CC(=O)O)c(Br)ccc2c1C(F)(F)F,inhibition,[1],63%
same,inhibition in vivo at 97 mg/kg/day,[30],44%
same,Inhibition,[3],67%
same,Inhibition,[5],37%
same,inhibition in vivo at 97 mg/kg/day,[31],84%
O=C1NC(=O)[C@@]2(CCOc3ccc(F)cc32)N1 [SORBINIL],Inhibition,[3],96%
same,IC50,[32],2.2 µM
same,Inhibition,[5],27%
same,inhibition in vivo at 4 mg/kg/day,[33],55%
same,IC50,[34],2.2 µM
same,ED50,[35],4.2 mg/kg
same,inhibition in vivo at 4 mg/kg/day,[36],69%
COC(=O)CN(C)C(=O)c1c(F)ccc2c(C(F)(F)F)c(OC)ccc12,inhibition,[37],inactive
same,inhibition in vivo at 22 mg/kg/day,[38],80%
same,inhibition in vivo at 27 mg/kg/day,[39],48%
same,inhibition in vivo at 11 mg/kg/day,[40],29%
same,inhibition in vivo at 11 mg/kg/day,[41],34%
same,inhibition in vivo at 27 mg/kg/day,[42],48%
same,inhibition in vivo at 22 mg/kg/day,[43],55%
COc1ccc2c(C(=O)N(C)CC(N)=O)ccc(F)c2c1C(F)(F)F,inhibition,[37],inactive
same,inhibition in vivo at 27 mg/kg/day,[39],56%
same,inhibition in vivo at 14 mg/kg/day,[44],72%
same,inhibition in vivo at 27 mg/kg/day,[42],31%
same,inhibition in vivo at 14 mg/kg/day,[45],74%
